The values below are quoted from earlier work in patent publication US9446032B2, “Methods for treating cardiovascular disorders” (WOCKHARDT LIMITED, priority 2011, dated 2016).

The conditions of data set [1]: incomplete owing to extensive first pass metabolism.

Turning to `CCOC(=O)C1=C(COCCN)NC(C)=C(C(=O)OC)C1c1ccccc1Cl` (stereo not shown) [Amlodipine besylate], where the note is “ethanol”, the solubility in ethanol result is listed as “sparingly soluble”. In addition, the solubility in water result (water) is “slightly soluble”.

`COCCc1ccc(OCC(O)CNC(C)C)cc1` (stereo not shown) [Metoprolol]: the “solubility (BCS)” value was “highly soluble”. Also, the bioavailability result in data set [1] was “about 50%”.
